This note sets out measurements from PubChem BioAssay (NCI).

Several values for one entry are separate records, joined by “and”; a condition that tells them apart may be missing. Identical values can stand only once.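 Cultured in 96-well plates, cells were exposed to test compound for 48 hours across five concentrations. At the GI50, growth is halved. TGI is the concentration that stops growth completely.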

The assay deals with MDA-MB-468 breast. Description: NCI tumour cell line growth inhibition, 48 h.
With `CCN(CC)c1ccc(C2=NN(C(C)=O)C(c3cc(OC)c(OC)c(OC)c3)C2)cc1` (stereo not given), the GI50 was 256 nM and the TGI amounted to 4100 nM. `CS(=O)(=O)c1ccc(Oc2cc(F)cc(C#N)c2)c2c1[C@H](O)[C@H](F)[C@H]2F`: the GI50 is more than 100000 nM and the TGI was more than 100000 nM. As for `Cc1nc2ccc(Nc3nc(Cl)nc(Nc4ccc(F)cc4)n3)cc2n1Cc1ccccc1`, the GI50 was 1860 nM and the TGI came to 3780 nM. The matching figures for `COc1cc(/C=C2\CN(S(=O)(=O)c3ccc(C)cc3)C/C(=C\c3cc(CN4CCOCC4)c(O)c(OC)c3)C2=O)cc(CN2CCOCC2)c1O`: 4050 nM and more than 100000 nM.

Consider `OCc1cn(Cc2ccc(Cl)cc2)c2ccccc12`, for which the GI50 was less than 10 nM. As for `COc1ccc(-c2cc(=O)oc3ccc(Cl)cc23)cc1F`, the GI50 was 110 nM and 29.5 nM; the TGI is 644 nM and 97.9 nM. For the molecule `C/C(=N\NC(=O)c1ccc(C(C)(C)C)cc1)c1ccc(O)cc1O`, the GI50 is 1020 nM and the TGI amounted to 5100 nM. As for `COc1cccc(C(=O)c2sc(Nc3ccc(N4CCN(C(C)C)CC4)cc3)nc2N)c1`, the GI50 is 1620 nM and the TGI is 9220 nM. The corresponding values for `COc1ccc(C(=O)/C=C/c2c(OC)cc(OC)cc2OC)c(OC)c1` are 1590 nM and 4660 nM. The matching figures for `CS(=O)(=O)Nc1ccc(Nc2c3ccccc3nc3cc([N+](=O)[O-])ccc23)cc1`: 304 nM and 2020 nM. The matching figures for `Cc1ccc(C(=O)Nc2ccc(CNCCN3CCOCC3)c(C(F)(F)F)c2)cc1C#Cc1cnc2cccnn12`: 2150 nM and 6190 nM. Regarding `C#CCN(C)CCCOc1ccc(NC(=O)CCCCCCC(=O)NO)cc1Cl`, the GI50 was 853 nM and the TGI was 4980 nM. The corresponding values for `CCN(Cc1cccnc1)c1ccc(CO)c(Cl)c1` are 29 nM and 104 nM. The corresponding values for `Cc1ccc(C(=Nc2ccccc2)N=P(c2ccccc2)(c2ccccc2)c2ccccc2)cc1` are 944 nM and 4300 nM. For the molecule `COC1C(O)CC(OC2CC(OC3CC(O[C@@H]4C(=O)c5c(cc6cc(OC7CC(OC8CC(O)C(O)C(C)O8)C(O)C(C)O7)c(C)c(O)c6c5O)CC4[C@H](OC)C(=O)C(C)=O)OC(C)C3O)OC(C)C2O)OC1C` (stereo not given in full), the GI50 was 16.1 nM and the TGI came out at 52.1 nM. The matching figures for `CC(=O)OC[C@H]1OC(O)C=C[C@@H]1OC(C)=O` (stereo not given in full): 82500 nM and 180000 nM. The molecule `CCN(Cc1ccccc1F)c1ccc(CO)c(Cl)c1` displayed a TGI of 13 nM. Turning to `COc1ccc(-c2nn(C(=O)NCCN(C)C)cc2-c2ccncc2)cc1Cl`, the GI50 was 1950 nM and the TGI is 11700 nM. The matching figures for `COc1ccc([As]=[As]c2ccc(OC)c(NCS(=O)(=O)O)c2)cc1NCS(=O)(=O)O` (stereo not given): 1290 nM and 3060 nM. The matching figures for `CCOC(=O)C1=C(C)N=C2SC=C(c3ccccc3)N2[C@H]1c1cn[nH]c1-c1ccc(Cl)cc1`: 3540 nM and 16600 nM.

As for `Cc1ccc(/C=C2\COc3ccc(O)c(O)c3C2=O)cc1`, the GI50 is 907 nM and the TGI turned out to be 2990 nM. The matching figures for `CCOC(=O)c1ccc2c(c1)nc(-c1ccc(Cl)cc1)n2-c1cc(C(C)(C)C)[nH]n1`: 2120 nM and 8180 nM. The corresponding values for `Cc1ccc2c(n1)C(=O)C(Cl)=C(Nc1cccc(C)c1C)C2=O` are 1530 nM and 3250 nM.

With `COc1ccc(O)c2c(=O)c3c(OC)cc4c(c3oc12)[C@@H]1C=CO[C@@H]1O4`, the GI50 was 131 nM and the TGI is 447 nM. The matching figures for `Nc1ccn(C2OC(CO)C(O)C2(F)F)c(=O)n1` (stereo not given): 18 nM and 55.8 nM. The matching figures for `OCCCc1n(Cc2ccc3ccccc3c2)c2ccccc2[n+]1Cc1ccc2ccccc2c1`: 291 nM and 1370 nM. The matching figures for `O=C(CI)OCC(COC(=O)CI)OC(=O)CI`: 2340 nM and 7910 nM.

As to `O=C1Nc2ccccc2/C1=C/C(=O)c1ccc(N2CCCC2)cc1`, the GI50 was 1960 nM and the TGI stood at 6590 nM. As to `CC(C)Sc1nc(Nc2ccc(S(N)(=O)=O)cc2)c(C#N)c(-c2ccc(F)cc2)n1`, the GI50 is 4590 nM and the TGI was found to be 18000 nM.

With `CS(=O)(=O)Nc1cc(-c2ccc3ncc(C#N)c(Nc4cccc(Cl)c4F)c3c2)cnc1Cl`, the GI50 was 116 nM and the TGI worked out at 1390 nM. `COc1cc2cc(c1Cl)N(C)C(=O)C[C@H](OC(=O)[C@H](C)N(C)C(=O)CCS)C[C@]1(C)O[C@H]1[C@H](C)[C@@H]1C[C@@](O)(NC(=O)O1)[C@H](OC)/C=C/C=C(\C)C2`: the GI50 is less than 5 nM and the TGI was less than 5 nM.

Take `CC(C)Cc1ccc(C(C)C(=O)NCc2ccc(Cn3c(=O)sn(CCCCl)c3=O)cc2)cc1` (stereo not given): the GI50 was 1350 nM and the TGI was found to be 3010 nM. The matching figures for `Fc1ccc(-c2nc(C(Cl)Cl)nc3cc(-c4ccccc4)nn23)cc1`: 2140 nM and 4950 nM. The corresponding values for `O=C1c2ccccc2C(=O)c2c(Nc3ccc(CCO)cc3)ccc(O)c21` are 1430 nM and 22800 nM.

Turning to `Nc1ncc(-c2ccc3ncnc(N4CCc5ccc(Cl)cc54)c3c2)cn1`, the GI50 is 479 nM and the TGI was found to be 2080 nM.

For the molecule `CC12OC(CC(O)C1O)n1c3ccccc3c3c4c(c5c6ccccc6n2c5c31)C(=O)N(CCN1CCCC1)C4=O` (stereo not given), the GI50 is 1000 nM and the TGI was 3110 nM.
